Series [1] has as its system human foreskin fibroblasts (HFF). Nature of the series: Cytotoxicity by Alamar Blue assay in human foreskin fibroblasts. The following applies: for IC50: Homo sapiens, Fibroblast, 120 h. (Resazurin is reduced to fluorescent resorufin, in cell work by metabolically active cells.)
In series [2] the test system is E. multilocularis metacestodes. In words: PGI-assay: drug-induced damage on in vitro cultured metacestodes (Pathogen Box screening cascade and EC50). Format: cell-based, Echinococcus multilocularis. The settings on record: for activity against metacestodes at 1 μM / PGI release, % of Tx-100 control, average, 5d / PGI release, % of Tx-100 control, average, 12d: triplicates; for PGI release, % of Tx-100 control, average, 5d / PGI release, % of Tx-100 control, average, 12d: 1 µM; for activity in the screen at 10 μM (confirmed in triplicates, >20% relative PGI release): 5 and 12 days; for toxicity against E. multilocularis metacestodes compared with host cells (HFF, RH): comparison of EC50 with IC50 on mammalian cells; for activity in the screen at 10 μM (confirmed in triplicates, >20% relative PGI release) / activity in the present in vitro screen (threshold 20% relative activity compared to Tx-100): 10 μM; for PGI release, % of Tx-100 control at 10 µM: confirmatory screening at 10 µM in triplicates, values as % of Tx-100 control.

Series [3] deals with E. multilocularis metacestodes. In words: Vesicle viability assay by Alamar Blue (MIC). Format: cell-based, Echinococcus multilocularis. The following applies: Echinococcus multilocularis, 288 h, read-out: E. multilocularis MIC, Alamar Blue vesicle viability assay, 12 days of incubation. As for the experimental part: The setup was the same as for PGI-assay EC50 calculations and it was performed in triplicates. […] Data was used to calculate the minimal inhibitory concentrations (MICs) of these compounds on metacestodes.

Series [4] relates to Reuber rat hepatoma (RH) cells. Nature of the series: Cytotoxicity by Alamar Blue assay in rat hepatoma cells. It counts as cell-based. The following applies: 120 h.
The test system of series [5] is E. multilocularis metacestodes. The following applies: cited from earlier work; for effect in vitro against E. multilocularis metacestodes: ref Reuter et al.
Series [6] concerns E. multilocularis metacestodes. In words: BPQ treatment of E. multilocularis infected mice. Format: in vivo, Balb/c mice. As to the method:
Balb/c mice, 6 weeks old, were purchased from Charles River Laboratories (Sulzheim, Germany) and used for in vivo experiments when they were 8 weeks old and weighted approximately 20 g. The mice were housed in a type 3 cage containing enrichment in the form of a cardboard house and paper and woodchip bedding with a maximum of seven mice per cage. […] Food and water was provided ad libitum. Experimentally infected mice were treated with BPQ to elucidate the efficacy of the drug in vivo. To infect mice, in vitro grown E. multilocularis metacestodes (isolate […]) were washed in PBS, were mechanically destroyed by pipetting and the resulting suspension was centrifuged for 5 min at 500 g. The parasite tissue was then taken up in an equal volume of PBS. Each mouse was subsequently infected intraperitoneally (i.p.) with 200 μl of this suspension. […] infected mice were randomly distributed into 3 treatment groups (8 animals per group) with 4 animals per cage. […] Treatments of mice started 2 weeks post-infection and lasted for 4 weeks, with consecutive treatment of mice for 5 days per week, followed by an interruption of treatment for 2 days for recovery. All treatments were administered by oral gavage in a volume of 50 μl, with ABZ and BPQ being suspended in corn oil. After four weeks, all mice were anesthetized with isoflurane and subsequently euthanized by CO2. The parasitic tissue from each mouse was completely resected and weighed. The mass of the resected parasitic tissue was used for statistical analyses of the experiment. […] The significance level was set to p < 0.05. Figures were prepared in R and Adobe Illustrator 2015.1.0.

[7] abbreviates: read-out: HFF preconfluent IC50.
Where [8] appears, read: Echinococcus multilocularis, 120 h, read-out: PGI release, % of Tx-100 control, average, 5d.
The mark [9] stands for this setting: Echinococcus multilocularis, 120 h, read-out: PGI release, % of the Tx-100 control, 5d.
[10] abbreviates: Echinococcus multilocularis, 288 h, read-out: PGI release, % of Tx-100 control, average, 12d.
The mark [11] stands for this setting: Echinococcus multilocularis, 288 h, read-out: PGI release, % of the Tx-100 control, 12d.
[12] abbreviates: Echinococcus multilocularis, 120 h, 10 µM, singlets, 5 days of incubation, read-out: PGI release, % of the Tx-100 control, 5d.
Setting [13] is: Echinococcus multilocularis, 288 h, 10 µM, singlets, 12 days of incubation, read-out: PGI release, % of the Tx-100 control, 12d.
Setting [14] is: Echinococcus multilocularis, 120 h, 5 days of incubation, read-out: PGI release, % of Tx-100 control, average, 5d.
Setting [15] is: Echinococcus multilocularis, 288 h, 12 days of incubation, read-out: PGI release, % of Tx-100 control, average, 12d.
The mark [16] stands for this setting: 10 µM, singlets, 5 days of incubation.
The mark [17] stands for this setting: 10 µM, singlets, 12 days of incubation.

In brackets after ≈: the same amount, converted by molar mass. Read-outs that look alike come from different tables or passages of the source.

Turning to `c1ccc(-c2nc(NC3CCCCC3)cc(C3CC3)n2)nc1` [MMV021013], the IC50 (usually the concentration that inhibits the measured activity by half) amounted to 53.1 µM in series [1] (read-out: HFF confluent IC50), 5.14 µM in series [1] (setting [7]), 2.07 µM in series [4] (read-out: RH confluent IC50) and 1.1 µM in series [4] (read-out: RH preconfluent IC50). Also, in series [2], the “activity against metacestodes at 1 μM” value is “distinct in vitro activities”. Further, in series [2] (5 days of incubation), the “PGI release, % of Tx-100 control, average, 5d” value (“PGI release, % … average, 5d” for short) is given as 3.92%. Also, the “PGI release, % of Tx-100 control, average, 12d” value (“PGI release, % … average, 12d” for short) in series [2] (12 days of incubation) is on record as 24.95%. For the same compound, the “activity in the screen at 10 μM (confirmed in triplicates, >20% relative PGI release)” value in series [2] is recorded as “active”. Further, the concentration giving a half-maximal response (EC50) (commonly the midpoint of the concentration-response curve) in series [2] (Echinococcus multilocularis, 120 h, read-out: E. multilocularis EC50, PGI-assay, 5 days in vitro) was 15.8 µM. The cytotoxicity at 10 µM in series [2] (setting [8]) was 37.8%; in series [2] (setting [9]) it was 34.8%; in series [2] (setting [10]), 42.3%; in series [2] (setting [11]) it was 92%. The “toxicity against E. multilocularis metacestodes compared with host cells (HFF, RH)” value in series [2] is reported as “as toxic to host cells as it was to E. multilocularis metacestodes”. Also, the MIC (commonly the lowest concentration that inhibits growth of the organism) in series [3] is 20 µM (≈ 5.89 µg/mL).
As to `COC(=O)Nc1nc2ccc(C(=O)c3ccccc3)cc2[nH]1` [MMV003152, Mebendazole, reference compound], in series [5] (three weeks treatment, ref Jura et al., 1998), the “concentration inhibiting parasite proliferation” value was 1 µM. The cytotoxicity at 10 µM in series [2] (setting [12]) is 1.28%; in series [2] (setting [13]), 11.9%.
On to `O=C(Nc1cc(C(F)(F)F)cc(C(F)(F)F)c1)c1cc(Cl)ccc1O` [MMV687807], for which the concentration for half-maximal inhibition (IC50) in series [1] (read-out: HFF confluent IC50) was found to be 0.37 µM; in series [1] (setting [7]) it was 0.15 µM; in series [4] (read-out: RH confluent IC50), 20.1 µM; in series [4] (read-out: RH preconfluent IC50), 1.27 µM. In addition, in series [1] (among the four compounds), the “toxicity against HFF (in words)” value is “highest toxicity against HFF”. The “activity against metacestodes at 1 μM” value in series [2] was “distinct in vitro activities”. Further, the “PGI release, % … average, 5d” value in series [2] (5 days of incubation) is listed as 40.83%. Further, the “PGI release, % … average, 12d” value in series [2] (12 days of incubation) was 59.00%. Also, the “activity in the screen at 10 μM (confirmed in triplicates, >20% relative PGI release)” value in series [2] is reported as “active”. Besides, the cytotoxicity at 10 µM in series [2] (setting [8]) turned out to be 58.5%; in series [2] (setting [9]), 30.8%; in series [2] (setting [10]), 74.5%; in series [2] (setting [11]) it was 64.7%. Moreover, the “toxicity against E. multilocularis metacestodes compared with host cells (HFF, RH)” value in series [2] is on record as “could only exhibit a potential therapeutic window for RH cells”. In series [3], the minimal inhibitory concentration (MIC) is under 1 µM.
`CCCSc1ccc2nc(NC(=O)OC)[nH]c2c1` [ABZ, albendazole]: the “parasite burden compared to the control” value in series [6] (p.o. in corn oil, 5 days per week, 4 weeks, BPQ 100 mg/kg, ABZ 200 mg/kg) is “significant reduction”. Also, in series [6] (whole course of treatment, 4 weeks p.o.), the “adverse effects due to treatment” value was “None of the mice showed signs of adverse effects”.
On to `CO[C@H]1/C=C/O[C@@]2(C)Oc3c(C)c(O)c4c(O)c(c(/C=N/N5CCN(C)CC5)c(O)c4c3C2=O)NC(=O)/C(C)=C\C=C\[C@H](C)[C@H](O)[C@@H](C)[C@@H](O)[C@@H](C)[C@H](OC(C)=O)[C@@H]1C` [MMV688775, Rifampicin, reference compound], for which the “effect in vitro against E. multilocularis metacestodes” value in series [5] (2006) is given as “ineffective”. The “activity in the present in vitro screen (threshold 20% relative activity compared to Tx-100)” value in series [2] was “inactive”. In addition, the values for the cytotoxicity at 10 µM in series [2] (setting [12]) and in series [2] (setting [13]) were -0.7% and -1.35%, respectively.
On to `C[C@@H]1[C@H](O)[C@@H](C)/C=C/C=C/C=C/C=C/C=C/C=C/C=C/[C@H](O[C@@H]2O[C@H](C)[C@@H](O)[C@H](N)[C@@H]2O)C[C@@H]2O[C@](O)(C[C@@H](O)C[C@@H](O)[C@H](O)CC[C@@H](O)C[C@@H](O)CC(=O)O[C@H]1C)C[C@H](O)[C@H]2C(=O)O` [MMV689000, Amphotericin B, reference compound], for which, in series [5] (ref Reuter et al., 2003, 2010), the “concentration shown to destroy metacestodes in vitro” value was 2.7 µM. In addition, the cytotoxicity at 10 µM came to 34.2% in series [2] (setting [12]) and 51.2% in series [2] (setting [13]). The values for the PGI release, % of Tx-100 control at 10 µM in series [2] (setting [14]) and in series [2] (setting [15]) were -1.34% and 2.75%, respectively.
With `CCCCCCCCCCCCCCCCOP(=O)([O-])OCC[N+](C)(C)C` [MMV688990, Miltefosine, reference compound], in series [5] (2006), the “effect in vitro against E. multilocularis metacestodes” value is “ineffective”. Moreover, the “activity in the present in vitro screen (threshold 20% relative activity compared to Tx-100)” value in series [2] was “inactive”. Besides, the figures for the cytotoxicity at 10 µM in series [2] (setting [12]) and in series [2] (setting [13]) were -1.11% and -5.17%, respectively.
As to `OC(c1cc(C(F)(F)F)nc2c(C(F)(F)F)cccc12)C1CCCCN1` (centres unmarked) [MMV000016, Mefloquine, reference compound], the half-maximal inhibitory concentration (IC50) in series [5] (ref Stadelmann et al., 2011, Küster et al., 2011, 2015, Rufener et al., 2018, read-out: IC50 value against this parasite in vitro) is over 30 µM. Further, in series [2] (5 days of incubation), the “PGI release, % … average, 5d” value is listed as 0.24%. In addition, in series [2] (12 days of incubation), the “PGI release, % … average, 12d” value came to 8.91%. Further, the “activity in the screen at 10 μM (confirmed in triplicates, >20% relative PGI release)” value is “active” in series [2] and “identified in our screening” in series [2] (listed as Mefloquine). Moreover, the cytotoxicity at 10 µM in series [2] (setting [12]) was 16.9%; in series [2] (setting [13]), 23.3%. Besides, the PGI release, % of Tx-100 control at 10 µM in series [2] (setting [14]) was 7.4%; in series [2] (setting [15]) it was 47.4%.
Turning to `CC(=O)Oc1ccccc1C(=O)Nc1ncc([N+](=O)[O-])s1` [MMV688991, Nitazoxanide, reference compound], in series [5] (ref Stettler et al., 2003, Reuter et al., 2006), the “concentration shown to be active in vitro against metacestodes” value was 3.3 µM. Moreover, the “activity against metacestodes at 1 μM” value in series [2] is “did not maintain its activity”. In series [2] (5 days of incubation), the “PGI release, % … average, 5d” value came to 1.35%. Also, in series [2] (12 days of incubation), the “PGI release, % … average, 12d” value was 11.08%. Also, the “activity in the screen at 10 μM (confirmed in triplicates, >20% relative PGI release)” value in series [2] was “active”. The cytotoxicity at 10 µM in series [2] (setting [12]) turned out to be 57.7%; in series [2] (setting [13]) it was 75.5%. Besides, the PGI release, % of Tx-100 control at 10 µM in series [2] (setting [14]) is 54.7%; in series [2] (setting [15]), 71.7%.
Take `O=C(c1ccc(NCCO)cc1)C1C[C@H]1c1ccc(Cl)cc1` (some centres unmarked) [MMV676877]: the “PGI release, % of the Tx-100 control, 5d” value in series [2] (setting [16]) was determined as 0.56%. Also, the “PGI release, % of the Tx-100 control, 12d” value in series [2] (setting [17]) is on record as -0.18%.
With `O=C1COCc2ccc(Br)cc2N1Cc1ccc(C(F)(F)F)cc1` [MMV032995], the “PGI release, % of the Tx-100 control, 5d” value in series [2] (setting [16]) worked out at 0.37%. Besides, the “PGI release, % of the Tx-100 control, 12d” value in series [2] (setting [17]) is recorded as 1.79%.
For `Cc1cccc(C(=O)Nc2ccnc(N(C)C3CCN(CC(C)C)CC3)c2)c1` [MMV024829], in that order: 0.62% and -0.07%.
The matching figures for `Cc1ccc2oc(-c3cc(NC(=O)Cc4ccccc4)ccc3Cl)nc2c1` [MMV676509]: -0.17% and 0.19%.
